Laboratory results as given in patent US4451485A, “Treatment of cardio-vascular diseases with 3-(2,2,2-trimethylhydrazinium) propionate dihydrate” (Institu Organicheskogo Sinteza Akademii Nauk Latviiskoi SSR, priority 1981, dated 1984).

Experiments:
in vivo = test: in vivo; design: species or system white mice; details: white mice
[1] = Variation of the arrhythmogenic dose of Strophanthin G in rabbits; assay type: in vivo
Description: The effect of the preparation according to the present invention on the variation of the arrhythmogenic dose of Strophanthin G was studied in experiments on rabbits of both sexes with a mass of […] administered with Strophanthin G at a dose of 60 μg/kg into the marginal auricular vein and, after every 5-10 minutes, at a dose of 5-10 μg/kg until the appearance of a stable ventricular extrasystole. In the test groups 20-30 minutes before administration of the glycoside a solution of 3-(2,2,2-trimethylhydrazinium)propionate was prophylactically administered intravenously. The ECG was recorded in II standard lead.
At a further increase of the dose to the preparation to the present invention, its protective effect was increased too.

[2] = Therapeutic effect on Strophanthin G arrhythmia in rabbits; assay type: in vivo
Description: To investigate the therapeutic effect of the preparation according to the present invention relative to the Strophanthin arrhythmia, another series of experiments was carried out. Strophanthin was intravenously administered to rabbits of both sexes with a mass of 3.0 to 3.8 kg at a general dose of 80 μg/kg which caused arrhythmia within 40-60 minutes. The test preparation was intravenously administered at the background of arrhythmia in the test group.
(§1) After the administration of the preparation at a dose of 5 mg/kg the regular synusal rhythm was retained for 12±5 minutes on the average, whereafter arrhythmia was gradually renewed, but it could be again eliminated by a repeated administration of the preparation at a dose of 2-5 mg/kg. In such cases the sinusal rhythm was retained for 15 to 30 minutes and in the majority of tests arrhythmia never renewed. Furthermore, an experiment was carried out on narcotized guinea pigs with a mass of 600-710 g to which Strophanthin -K was administered into the femoral vein at a total dose of 500 μg/kg.

[3] = Effect on Strophanthin K arrhythmia in narcotized guinea pigs (500 μg/kg); assay type: in vivo
Description: as §1
The preparation based on 3-(2,2,2-trimethylhydrazonium)propionate was intravenously administered against the background of arrhythmia in the test group.
The graph illustrates the recording of ECG of a guinea pig.
The effect of compound I on Strophanthin arrhythmia in guinea pigs.

[4] = Aconitine model of arrhythmia in white rats; assay type: in vivo
Description: For the comparison of preparations, as the criterion of the range of therapeutic effect, there was used the ratio of the half-lethal dose to the half-effective dose (LD50 /ED50) which was referred to as the antiarrhythmic index. […] The comparative study of the antiarrhythmic activity of pharmaceutical preparations using an acotine model of arrhythmia was effected in experiments on white rats weighing 190-240 g. The test preparations were administered intraperitoneally 10-40 minutes before administration of aconitine.

[5] = Arterial pressure, respiration and responses to biogenic amines in narcotized cats; assay type: in vivo
Description: The study of the preparation according to the present invention for arterial pressure, breathing and hemodynamic effects of norepinephrine, neoepinephrine, novoepinephrine, acetylcholine and histamine was carried out in experiments on cats with a mass of 2.8 to 4.0 kg narcotized by chlorase. There were then recorded the animals' arterial pressure, respiration and ECG on a physiograph produced by Narco Bio-Systems Co.

[6] = Embryotoxic and teratogenic effects in rats; assay type: in vivo, white rats; details: up to 10,000 mg/kg perorally, any day of pregnancy
[7] = Storage stability of pharmaceutical preparations; assay type: physicochemical
[8] = Antianginal effect in patients, intravenous; assay type: in vivo; details: 0.2 to 0.4 g intravenous
Description: (§2) The antianginal and antiarrhythmic effects of the preparation according to the present invention were evaluated with the use of the injection pharmaceutical form of the preparation administered intravenously in an amount of 0.2 to 0.4 g based on the active ingredient.

[9] = Efficiency in extrasystolic arrhythmia in patients, intravenous; assay type: in vivo; details: 1 ml of a 40% solution intravenous; 7 patients
Description: as §2
The preparation efficiency in the case of extrasystolic arrhythmia was studied on 7 patients.
The intravenous administration of the preparation (1 ml of a 40% solution) arrested the rhythm disorder for 5-20 minutes.

[10] = Physicochemical properties of the dihydrate (solubility, stability, hygroscopicity)
[11] = Clinical tests on patients with various kinds of pathology; details: human, in vivo
Text: The pharmaceutical preparation according to the present invention can be useful in the treatment of such diseases as heart insufficiency, valvular defects, myocarditises, cardiosclerosis, ischemic heart disease, rhythm disturbances of different genesis. […] The preparation according to the present invention has been tested in experiments on animals and in clinics on patients with various kinds of pathology.
The preparation has been studied on more than 65 patients suffering from various pathology of the cardio-vascular systems such as heart rhythm disturbances (arrhythmia) of different etiology, ischemic heart disease, stenocardia, and atherosclerosis.

In the case of C[N+](C)(C)NCCC(=O)[O-] [3-(2,2,2-trimethylhydrazinium)propionate], the LD50 (in vivo; mouse, in vivo, intravenous (Table 2)) is reported as 4430 mg/kg, the “Acute toxicity, LD50” value (in vivo; intravenous (Table 5)) is reported as 4,430 mg/kg and the Duration of arrhythmia ([1]; 10 mg/kg intravenously, control 20 ± 10) is reported as 12 ± 6 min. The “Arrhythmogenic dose of Strophanthin” value ([1]; 10 mg/kg intravenously, control 67 ± 9) was 0.09 ± 0.015 mg/kg, the “Arrhythmogenic dose of Strophanthin” value ([1]; 25 mg/kg intravenously) was 0.1 ± 0.01 mg/kg and the Duration of arrhythmia ([1]; 25 mg/kg intravenously) was 8 ± 5 min. The “Arrhythmogenic dose of Strophanthin” value ([1]; 50 mg/kg intravenously) was 0.106 ± 0.012 mg/kg, the Duration of arrhythmia ([1]; 50 mg/kg intravenously) was 15 ± 8 min and the “Duration regular sinus rhythm was retained” value ([2]; 5 mg/kg, average) was 12 ± 5 min. For the same compound, the “Time to arrest of ventricular tachyarrhythmia” value ([2]; 1 to 3 mg/kg intravenous) was 1 to 2 min, the “Effect on ventricular tachyarrhythmia” value ([2]; 1 to 3 mg/kg intravenous, majority of tests) was “temporarily arrested ventricular tachyarrhythmia” and the “Changes in the complex QRST” value ([2]; intravenous) was “reduced”. The “Duration sinusal rhythm was retained after repeated administration” value ([2]; repeated administration, 2-5 mg/kg) was 15 to 30 min, the “Effect on atrio-ventricular block” value ([3]; 2-5 mg/kg, timely administration, some cases) was “possible to also eliminate the atrio-ventricular block” and the “Changes in the complex QRST and atrial fibrillation” value ([3]; intravenous) was “The changes in the complex QRST were reduced and the atrial fibrillation disappeared”. For the same compound, the “Effect on ventricular arrhythmia” value ([3]; intravenous) was “temporarily arrested the ventricular arrhythmia”, the “Time to arrest of ventricular arrhythmia” value ([3]; intravenous) was 2 to 3 min and the ED50 ([4]; Rattus norvegicus, ip, read-out: ED50, aconitine arrhythmia in rats) was 12.5 ± 2.5 mg/kg. For the same compound, the “Antiarrhythmic index LD50/ED50, aconitine arrhythmia in rats” value ([4]; rat, in vivo) was 354, the “Change in arterial pressure, pulse frequency and respiration” value ([5]; 0.5 to 2.0 mg/kg intravenous) was “did not result in any essential change in arterial pressure, pulse frequency and respiration” and the “Level of responses to biogenic amines” value ([5]; 0.5 to 2.0 mg/kg intravenous) was “did not change changed the level of responses to biogenic amines”. The “Change in response to acetyl choline” value ([5]; 15-25 mg/kg) was 10-15%, the “Change in response to neoepinephrine” value ([5]; 15-25 mg/kg) was 5-10% and the “Increase of the response to histamine” value ([5]; 15-25 mg/kg) was 5-10%. For the same compound, the “Short-time reduction of arterial pressure” value ([5]; 15-25 mg/kg) was 5-20 mm Hg, the “Duration of increase of arterial pressure” value ([5]; 15-25 mg/kg, some cases) was 5 to 12 min and the “Increase of arterial pressure vs initial value” ([5]; 15-25 mg/kg, some cases) was 5-10 mm Hg. The “Blood pressure or response to biogenic amines” value ([5]; further increase of dose) was “did not cause changes in blood pressure or response to the administration of biogenic amines”, the “Embryotoxic or teratogenic effects” value [6] was “no embryotoxic or teratogenic effects” and the Stability in storage ([7]; +5° C.) was “stable in storage at a temperature of +5 °C for at least two years”. The “Stability of pharmaceutical forms for peroral administration” value ([7]; room temperature) was “stable for two years at room temperature”, the “Stability of analgesic effect” value [8] was “not always stable” and the “Effect on retrosternal pains” value ([8]; 8 cases in 5 patients) was “rapidly cut short retrosternal pains”. For the same compound, the “Duration of arrest of the rhythm disorder” value [9] was 5 to 20 min, the Hygroscopicity ([10]; dihydrate) was “slightly hygroscopic” and the “Solubility in hot ethanol and methanol” value ([10]; dihydrate) was “well soluble”. For the same compound, the “Solubility in nonpolar solvents” value ([10]; dihydrate) was “insoluble”, the Solubility in water ([10]; dihydrate) was “well soluble” and the Storage stability ([10]; dihydrate, closed area, room temperature) was 2 years. For the same compound, the Thermal stability ([10]; heating above 40° C.) was “loses crystallization water and slowly decomposes”, the “Therapeutic effects in paroxysmal tachycardia, fibrillation, A-V block and paroxysms” value [11] was “positive, though less pronounced, effects” and the “Therapeutic results in chronic decompensation (rheumatic valvular defects) and acute circulatory insufficiency (myocardial infarction)” value [11] was “Especially pronounced therapeutic results”.
